Experiment: Single-dose intravenous and oral pharmacokinetic study in mice
Assay type: in vivo, Balb/c mice
Settings: mouse; male Balb/c mice, PO 50 mg/kg, plasma
Protocol: Twenty-seven male Balb/c mice were randomly divided into 3 groups, 9 mice in each group. Group 1: mice received an intravenous (IV) dose of Compound 1 at 5 mg/kg with a dosing volume of 5 mL/kg. Blood samples were collected at 0.083, 0.25, 0.5, 1, 2, 4, 6, 8, and 24 hours post-dose using a staggered sampling method. Group 2: mice received an oral (gavage) dose of Compound 1 at 50 mg/kg with a dosing volume of 10 mL/kg. Blood samples were collected at 0.25, 0.5, 1, 2, 4, 6, 8, and 24 hours post-dose using a staggered sampling method. Group 3: mice received an oral (gavage) dose of palbociclib at 50 mg/kg with a dosing volume of 10 mL/kg. Blood samples were collected at 1, 3, 4, 6, 8, 10, 12, and 24 hours post-dose using a staggered sampling method. For each group, 3 samples were collected at each time point. Plasma was separated by centrifugation and stored at −70° C. The concentrations of Compound 1 or palbociclib in plasma were measured using LC-MS/MS.

Q: With CC(=O)c1c(C)c2cnc(Nc3ccc(N4CCNCC4)cn3)nc2n(C2CCCC2)c1=O [palbociclib, reference compound] as the compound, how does the AUC(0-t) read?
A: 18300 ng·h/mL

Q: What about the Cmax of the same compound?
A: 1320 ng/mL

Q: What about the Tmax of the same compound?
A: 8 h

Q: And the half-life?
A: 458 min
